The values that follow are results of earlier work, collected in patent US8524749B2, “Controlled release compositions of tizanidine” (ALZA Corporation, priority 2007, dated 2013).

The conditions of the data set: doses of 0.5-0.7 g/kg alcohol; comparison data.

Consider `CCO` [alcohol], for which the “Peak impairment in Power of Attention, decrement compared to baseline” value is “about 150 msec”.
